The record followed here is publication PMC7345905, “Microbial Metabolite Urolithin B Inhibits Recombinant Human Monoamine Oxidase A Enzyme” (Metabolites, 2020).

Several values for one entry are separate records, joined by “and”; a condition that tells them apart may be missing. Identical values can stand only once.

The target in one assay is T1, human recombinant MAO-B (Homo sapiens, UniProt P27338).
T1 construct: purchased Sigma-Aldrich
T1 sequence (P27338 1-520): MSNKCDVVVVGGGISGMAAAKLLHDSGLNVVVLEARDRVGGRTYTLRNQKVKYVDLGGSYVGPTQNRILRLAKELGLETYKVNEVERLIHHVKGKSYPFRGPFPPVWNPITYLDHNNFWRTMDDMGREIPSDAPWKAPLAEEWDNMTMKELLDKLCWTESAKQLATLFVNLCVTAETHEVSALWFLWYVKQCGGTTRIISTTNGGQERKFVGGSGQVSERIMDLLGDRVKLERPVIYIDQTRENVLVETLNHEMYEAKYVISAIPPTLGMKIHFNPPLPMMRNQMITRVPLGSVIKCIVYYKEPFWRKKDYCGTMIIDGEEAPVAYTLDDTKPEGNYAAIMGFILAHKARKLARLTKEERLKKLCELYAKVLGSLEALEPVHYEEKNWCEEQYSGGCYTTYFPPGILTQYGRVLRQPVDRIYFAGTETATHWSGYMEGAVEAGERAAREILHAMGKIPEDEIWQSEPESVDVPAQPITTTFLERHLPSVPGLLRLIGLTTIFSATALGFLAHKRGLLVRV
Put plainly: MAO-Glo MAO-B inhibition assay. The assay is classed as biochemical. As for the experimental part:
(§1) MAO inhibition assays were performed using a MAO-Glo™ Assay kit (Promega) according to the manufacturer’s instructions. Briefly, 1 µg of human recombinant MAO-A and MAO-B enzyme isoforms were incubated with 160 and 16 µM of MAO substrates, respectively. […] The enzyme reaction was quenched by the addition of a luciferin detection reagent. […] An equal volume of dimethyl sulfoxide (0.1%) was added to the enzyme assay as a control. After 1 h of incubation, the luminescence was measured with a multimode microplate reader (Synergy HT, BioTek, Winooski, VT, USA) to determine the MAO enzyme activities. Initially, the inhibition potential of all the test compounds was evaluated at a concentration of 100 μM. The control reaction (with no inhibitor) with vehicle (DMSO 0.1%) was set at 100% activity. To determine IC50 of the test compounds, the dose dependent enzyme assays were performed. We used range of 0.1 to 50 μM concentrations for MAO-A and 0.1 to 200 μM concentrations of test compounds for the MAO-B enzyme activities. The type of enzyme inhibition was determined using variable concentrations of MAO-A substrate (10–360 µM) and MAO-B substrate (2–64 µM) for the respective enzyme assay. […] A Lineweaver–Burk double reciprocal plot was generated, and the mode of inhibition was determined by visual examination of the plot. The slope of the reciprocal plots was plotted against the inhibitor concentrations and determined the x-axis intercept that represented the inhibitor constant, Ki value.

The next assay concerns the target T2, human recombinant MAO-A (Homo sapiens, UniProt P21397).
T2 construct: purchased Sigma-Aldrich
T2 sequence (P21397 1-527): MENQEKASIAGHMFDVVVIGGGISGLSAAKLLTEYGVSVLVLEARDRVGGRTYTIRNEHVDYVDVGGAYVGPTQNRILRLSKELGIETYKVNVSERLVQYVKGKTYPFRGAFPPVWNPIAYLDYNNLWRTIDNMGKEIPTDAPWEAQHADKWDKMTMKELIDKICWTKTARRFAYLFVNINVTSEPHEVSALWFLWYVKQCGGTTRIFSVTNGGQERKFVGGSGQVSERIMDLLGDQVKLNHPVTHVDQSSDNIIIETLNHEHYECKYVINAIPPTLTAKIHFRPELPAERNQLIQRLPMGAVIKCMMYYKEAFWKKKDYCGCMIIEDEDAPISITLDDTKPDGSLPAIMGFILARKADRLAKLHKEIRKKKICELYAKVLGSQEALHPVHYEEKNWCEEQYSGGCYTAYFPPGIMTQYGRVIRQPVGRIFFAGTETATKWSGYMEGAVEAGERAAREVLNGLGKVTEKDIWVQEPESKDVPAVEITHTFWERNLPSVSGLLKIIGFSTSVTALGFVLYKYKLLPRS
Put plainly: MAO-Glo MAO-A inhibition assay. The settings on record: 100 µM. Type of assay: biochemical. As for the experimental part:
as §1

Regarding `O=c1oc2c(O)c(O)cc3c(=O)oc4c(O)c(O)cc1c4c23` [EA, ellagic acid], the inhibition at 100 µM at human recombinant MAO-B (100 μM) fell in the range of 20 to 30%. In addition, the “MAO-B enzyme assay, Percent of control” value on human recombinant MAO-B (100 µM (Figure 1C), N=1-3, 100 µM) is 89.6601% of control and 87.5901% of control. In addition, the remaining activity at 100 µM on human recombinant MAO-B (100 µM (Figure 1C), N=1-3, read-out: MAO-B enzyme assay, Percent of control) worked out at 88.7%. For the same molecule, on human recombinant MAO-A (100 µM (Figure 1A), N=1-3), the “MAO-A enzyme assay, Percent of control” value was 80.5551% of control and 100.559% of control and 100.148% of control. In addition, the “inhibition of MAO-A enzyme activity” value on human recombinant MAO-A (compared to vehicle) is “failed to inhibit”.

As usually defined, the inhibition is the share of the control response that was lost under treatment.
